Assay results published in patent US6136845A (The Texas A&M University System, priority 1998, dated 2000).
Like-named read-outs stand apart in the source and are kept apart here.

Key:
mammary tumor [1] = details: cited from earlier work
rat uterus = details: immature female rat uterus; result in words; cited from earlier work
CYP1A1 [2] = details: cited from earlier work; for ED50 for induction of hepatic CYP1A1-dependent activity: 6-i-propyl value estimated
CYP1A1 [3] = details: result in words; cited from earlier work
liver = details: result in words; cited from earlier work
ER = details: 21 to 25 day-old female Sprague-Dawley rat uterus; cited from earlier work
[4] = tested on: MCF-7 human breast cancer cell lines; details: MCF-7 cells in culture; cited from earlier work
PR = details: 21 to 25 day-old female Sprague-Dawley rat uterus; cited from earlier work
[5] = in vivo; cited from earlier work
[6] = tested on: 17β-estradiol (E2)-induced responses; details: rats, mice; cited from earlier work
mammary tumor [7] = details: rodent models; cited from earlier work
femurs = assay: Bone effects in ovariectomized rats (femur weight and length); assay type: in vivo, Sprague-Dawley rat; details: tamoxifen 0.4, 6-MCDF 0.8 mg/kg/day oral, 20 days
Description: The ovariectomized rat is used as a model for osteoporosis.
Rats were euthanized on day 21. After uteri were excised and processed, both left and right femurs were excised and the length measured with calipers. […] Wet weight was measured after residual connective tissue was stripped away. Dry weight was measured after the bones were dried for 12 ours at 130° C.

uterus [8] = assay: Uterine wet weight in ovariectomized rats (Example 4); assay type: in vivo, Sprague-Dawley rat; details: 0.4 mg/kg/day each oral, 20 days
From the text: (§2) Methods: Rats were ovariectomized at 97 days of age, and treatments began at 117 days of age. […] Rats were euthanized on day 21.

uterus [9] = details: cited from earlier work
uterine cytosolic PR = assay: Uterine cytosolic PR levels in ovariectomized rats (Example 4); assay type: in vivo, Sprague-Dawley rat; details: 0.4 mg/kg/day each oral, 20 days
From the text: (§1) Rats were euthanized on day 21.

endometrial tumor = details: cited from earlier work
mammary tumors = assay: DMBA-induced rat mammary tumor model, tumor volume and weight; assay type: in vivo, Sprague-Dawley rat; details: 20 days
Description: Female virgin Sprague-Dawley rats were obtained from Harlan (Houston) and were allowed to acclimate for 10 days, allowed access to food and water ad libitum, and maintained on a 12 h light/dark schedule. Mammary tumors were induced in 50±3 day old-rats by administering a single gavage dose of 20 mg DMBA in 0.5 ml corn oil. […] Tumor sizes were measured with calipers, and volumes were calculated by formula (length×width×depth)/6π and are expressed as percent control. […] All tumors were removed, weighed, and sectioned. One portion was frozen in liquid nitrogen for PCR analysis; one portion was placed in 10% formalin for histopathological analysis; and the majority was immediately homogenized for the preparation of microsomal and cytosolic fractions. Livers were perfused and weighed, and cytosol and microsomes were prepared as previously described.

bone tissue = details: cited from earlier work
[10] = Body and organ weights in DMBA-treated rats
Description: Female virgin Sprague-Dawley rats were obtained from Harlan (Houston) and were allowed to acclimate for 10 days, allowed access to food and water ad libitum, and maintained on a 12 h light/dark schedule. Mammary tumors were induced in 50±3 day old-rats by administering a single gavage dose of 20 mg DMBA in 0.5 ml corn oil. […] Tumor sizes were measured with calipers, and volumes were calculated by formula (length×width×depth)/6π and are expressed as percent control. One week after their last injection, rats were euthanized by asphyxiation. All tumors were removed, weighed, and sectioned. One portion was frozen in liquid nitrogen for PCR analysis; one portion was placed in 10% formalin for histopathological analysis; and the majority was immediately homogenized for the preparation of microsomal and cytosolic fractions. Livers were perfused and weighed, and cytosol and microsomes were prepared as previously described.

uterine peroxidase [11] = assay: Uterine peroxidase activity in ovariectomized rats (Example 6, Table 6); assay type: in vivo, Sprague-Dawley rat; details: tamoxifen 0.4, 6-MCDF 0.8 mg/kg/day oral, 20 days
From the text: as §1

[12] = tested on: uterine progesterone receptor; assay: Uterine progesterone receptor in ovariectomized rats (Example 6, Table 6); assay type: in vivo, Sprague-Dawley rat; details: tamoxifen 0.4, 6-MCDF 0.8 mg/kg/day oral, 20 days
From the text: as §1

[13] = Body and organ weights (Example 6, Table 7)
Description: For Table 7 and FIGS. 3 and 3B, exact aged virgin female Sprague-Dawley rats were dosed on day 55 in the afternoon with 20 mg/rat 7,12-dimethylbenz[a]anthacene in a volume of 0.5 ml/rat corn oil (rats weigh approximately 165 g, resulting in 120 mg/kg DMBA and 3 ml/kg corn oil).

[14] = Body and organ weights (Examples 4 and 5)
Description: as §2
For the control vehicle and the MCDF vehicle ethanol was added (5% v/v) and then evaporated away.

uterus [15] = assay: Uterine wet weight in ovariectomized rats (Example 6, Table 6); assay type: in vivo, Sprague-Dawley rat; details: tamoxifen 0.4, 6-MCDF 0.8 mg/kg/day oral, 20 days
From the text: as §1

uterine peroxidase [16] = assay: Uterine peroxidase assay in ovariectomized rats (Example 4); assay type: in vivo, Sprague-Dawley rat; details: 0.4 mg/kg/day each oral, 20 days
From the text: as §1

[17] = each drug 0.4 mg/kg/day by gavage, DMBA rats

Compound: Clc1cc(Cl)c2c(c1)oc1c(C3CCCCC3)cc(Cl)cc12 [6-CHDF, 6-cyclohexyl-1,3,8-triCDF]
- antitumorigenic activity (mammary tumor [1]; 5 mg/kg/wk, result in words): inactive

Compound: CC(C)c1cc(Cl)cc2c1oc1cc(Cl)cc(Cl)c12 [6-i-propyl-1,3,8-triCDF]
- ED50 values for antiestrogenicity (rat uterus): similar
- ED50 (CYP1A1 induction)/ED50 (antiestrogenicity) ratio (CYP1A1 [2]; rat, high ratio indicates low toxicity and high antiestrogenic potency): 13,990-17,100

Compound: Cc1cc(Cl)cc2c1oc1c(Cl)c(Cl)c(Cl)cc12 [6-methyl-2,3,4,8-tetraCDF, 6-methyl-2,3,4,8-tetrachlorodibenzofuran]
- ED50 values for antiestrogenicity (rat uterus): similar
- ED50 for induction of hepatic CYP1A1-dependent activity (CYP1A1 [2]; rat): 8.52 mmol/kg

Compound: Cc1cc(Cl)c2oc3cc(Cl)cc(Cl)c3c2c1 [8-MCDF, 8-methyl-1,3,6-trichlorodibenzofuran]
- growth inhibition (mammary tumor [1]; 5 mg/kg/wk): > 50%
- mammary tumor growth (mammary tumor [1]; 5, 10 or 25 mg/kg/wk, result in words): significantly inhibited
- induction of hepatic CYP1A1-dependent activity (CYP1A1 [3]): not accompanied by any significant changes
- liver morphology (liver): not accompanied by any significant changes
- liver/body weight ratios (liver): not accompanied by any significant changes

Compound: Cc1cc2c(cc1Cl)oc1c(Cl)c(Cl)c(Cl)cc12 [8-methyl-2,3,4,7-tetraCDF]
- ED50 values for antiestrogenicity (rat uterus): similar
- ED50 for induction of hepatic CYP1A1-dependent activity (CYP1A1 [2]; rat): 5.31 mmol/kg

Compound: Clc1cc2c(cc1Cl)Oc1cc(Cl)c(Cl)cc1O2 [TCDD, 2,3,7,8-tetrachlorodibenzo-p-dioxin, reference compound]
- nuclear and cytosolic ER binding (ER): dose-dependent decrease
- antiestrogenic activity [4]: effective antiestrogen
- nuclear and cytosolic progesterone receptor (PR) binding (PR): dose-dependent decrease
- hepatocarcinogenicity [5]: too hepatocarcinogenic
- antiestrogenic activity [6]: effective antiestrogen
- induction of CYP1A1 (CYP1A1 [2]; result in words): induces toxic and biochemical responses
- mammary tumor growth (mammary tumor [7]): inhibit mammary tumor growth

Compound: CC/C(=C(\c1ccccc1)c1ccc(OCCN(C)C)cc1)c1ccccc1 [tamoxifen, reference compound]
- Dry bone weight (femurs; control 0.180 ± 0.005): 0.216 ± 0.005 % body weight
- Wet bone weight (femurs; control 0.347 ± 0.009): 0.403 ± 0.007 % body weight
- Uterine Wet Weight (% body wt) (uterus [8]; control 0.045 ± 0.002): 0.085 ± 0.004 % body wt
- Uterine Wet Weight (uterus [8]; control 0.131 ± 0.006): 0.211 ± 0.011 g
- uterine hyperplasia (uterus [9]; most animal models): induced uterine hyperplasia
- rat uterine wet weight (uterus [9]; rat, result in words): significant dose dependent increases
- Uterine cytosolic PR levels (fmol/mg protein) (uterine cytosolic PR; control 308 ± 142): 674 ± 52 fmol/mg protein
- Uterine cytosolic PR levels (fmol/uterus) (uterine cytosolic PR; control 1100 ± 508): 4501 ± 350 fmol/uterus
- Uterine cytosolic PR levels (fmol/g uterus) (uterine cytosolic PR; control 8368 ± 3868): 21301 ± 1655 fmol/g uterus
- risk for endometrial tumor formation (endometrial tumor; 2843 patients, 20 mg/day (Fisher et al. 1994)): 7.5 fold
- risk for endometrial tumors (endometrial tumor; Danish trial, 30 mg/day for one year): 3.3 fold
- risk for endometrial tumors (endometrial tumor; Scottish and Manchester England trials, 20 mg/day): no increased risk
- risk for endometrial tumors (endometrial tumor; South-Swedish trial, 30 mg/day for one year): 2.0 fold
- risk for endometrial tumors (endometrial tumor; Stockholm trial, 40 mg/day for 2 years): approximately 6 fold
- risk/incidence of endometrial cancer (endometrial tumor; women, breast cancer treatment, result in words): Risk of endometrial cancer increases
- Tumor Wt (% Control) (mammary tumors; 0.4 mg/kg/day each, control 100 ± 27.7): 61.5 ± 30.4 % Control
- Final Tumor Volume (% Control) (mammary tumors; 0.4 mg/kg/day each, control 100 ± 31.5): 41.5 ± 20 % Control
- Final Tumor Volume (mammary tumors; 0.4 mg/kg/day each, control 2734 ± 956): 1135 ± 587 mm^3
- % Inhibition tumor volume (mammary tumors; [17]): 58.5%
- % Inhibition tumor weight (mammary tumors; [17]): NS decrease
- effect in bone (bone tissue; cycling rats (Takahashi et al. 1996)): no effect
- effect in bone tissue (bone tissue; ovariectomized rats (Turner et al. 1987)): acted as an estrogen agonist
- Uterine Wt. ([10]; 0.4 mg/kg/day each, 20 days, control 0.212 ± 0.017): 0.142 ± 0.006 % BW
- Spleen Wt. ([10]; 0.4 mg/kg/day each, 20 days, control 0.257 ± .022): 0.236 ± 0.019 % BW
- Kidney weight ([10]; 0.4 mg/kg/day each, 20 days, control 0.349 ± 0.007): 0.386 ± 0.012 % BW
- Liver weight ([10]; 0.4 mg/kg/day each, 20 days, control 3.13 ± 0.12): 3.64 ± 0.18 % BW
- Final Body Weight ([10]; 0.4 mg/kg/day each, 20 days, control 250 ± 5): 243 ± 4 g
- Heart weight ([10]; rat, in vivo): 0.420 ± 0.018 % BW
- Uterine Peroxidase Activity (Absorbance/g uterus) (uterine peroxidase [11]; per g uterus): 31.94 ± 0.26 Fold Increase over control
- Uterine Peroxidase Activity (Absorbance/mg protein) (uterine peroxidase [11]; per mg protein): 26.76 ± 0.22 Fold Increase over control
- Uterine Peroxidase Activity (Absorbance/uterus) (uterine peroxidase [11]; per uterus): 38.66 ± 0.32 Fold Increase over control
- Uterine Progesterone Receptor (fmol/mg protein) ([12]; control 198 ± 15): 790 ± 21 fmol/mg protein
- Uterine Progesterone Receptor (fmol/uterus) ([12]; control 765 ± 69): 9062 ± 244 fmol/uterus
- Uterine Progesterone Receptor (fmol/g uterus) ([12]; control 4462 ± 343): 43666 ± 1175 fmol/g uterus
- Rat weight at start of treatments ([13]; Table 7, baseline, control 255 ± 3): 261 ± 9 g
- Spleen weight (% body weight) ([13]; Table 7, control 0.289 ± 0.018): 0.254 ± 0.018 % body weight
- Kidney weight (% body weight) ([13]; Table 7, control 0.334 ± 0.010): 0.369 ± 0.017 % body weight
- Heart weight (% body weight) ([13]; Table 7, control 0.360 ± 0.010): 0.357 ± 0.023 % body weight
- Rat weight prior to euthanasia ([13]; Table 7, control 295 ± 11): 242 ± 6 g
- Rat weight at start of treatments ([14]; Table 5, baseline, control 273.1 ± 8.1): 275.7 ± 7.6 g
- Spleen wet weight (% body wt) ([14]; Table 5, control 0.247 ± 0.007): 0.252 ± .008 % body wt
- kidney weight (% body wt) ([14]; Table 5, control 0.318 ± 0.010): 0.334 ± 0.008 % body wt
- Heart weight (% body wt) ([14]; Table 5, control 0.319 ± 0.006): 0.346 ± 0.005 % body wt
- Spleen wet weight ([14]; Table 5, control 0.72O ± 0.012): 0.631 ± 0.037 g
- Kidney weight ([14]; Table 5, control 0.933 ± 0.038): 0.837 ± 0.045 g
- Heart weight ([14]; Table 5, control 0.935 ± 0.039): 0.864 ± 0.031 g
- Liver weight (% body wt) ([14]; Table 5, control 4.06 ± 0.23): 4.26 ± 0.26 % body wt
- Liver weight ([14]; Table 5, control 11.88 ± 0.78): 10.70 ± 0.92 g
- Rat weight prior to euthanasia ([14]; Table 5, control 293.2 ± 10.9): 249.8 ± 7.6 g
- Uterine wet weight (% body weight) (uterus [15]; control 0.0583 ± 0.0055): 0.0857 ± 0.0036 % body weight
- Uterine wet weight (uterus [15]; control 0.171 ± 0.15): 0.208 ± 0.009 g
- Uterine Peroxidase Assay (Abs/g uterus) (uterine peroxidase [16]; per g uterus): 17.7 ± 0.45 Fold Increase over Control
- Uterine Peroxidase Assay (Abs/mg protein) (uterine peroxidase [16]; per mg protein): 17.5 ± 0.60 Fold Increase over Control
- Uterine Peroxidase Assay (Abs/uterus) (uterine peroxidase [16]; per uterus): 28.41 ± 0.73 Fold Increase over Control
